Patent publication US20250332139A1, “PS[…] AND THEIR USE FOR TREATING […] AND NE[…] DISORDERS” (Transcend Therapeutics, Inc., priority 2021, published 2025)
Like-named read-outs stand apart in the source and are kept apart here.

How the values were obtained:
[1] = tested on: myelin basic protein (MBP) in the amygdala; assay: Immunohistochemistry of myelin basic protein; assay type: in vivo, rat; conditions: 10 mg/kg IP, single dose, 24 h
Protocol: Immunohistochemistry: The in-life portion of the study was conducted at WuXi Apptec (Cranbury, NJ). Sectioning and staining of brains took place at Neuroscience Associates (NSA, Knoxville, TN). […] Brains were post-fixed in PFA before shipment to NSA for processing and staining. Hemisected brains were mounted, sectioned and stained using standard protocols with myelin-basic protein primary antibody (MBP SMI-99, 1:5000, Biolegend, San Diego, CA) and anti-mouse biotinylated secondary antibody (BA-2001, Vector Laboratories, Newark, CA). Slides were imaged using a Huron Digital Pathology TissueScope LE120 whole slide scanning system. 20× objective was used with a 0.4 μm/pixel resolution.

[2] = biological target: norepinephrine transporter (NET) (Rattus norvegicus, UniProt Q63380); assay: Competitive radioligand binding, [3H]nisoxetine, rat brain lysates
Chain of norepinephrine transporter (NET) (Q63380 1-617): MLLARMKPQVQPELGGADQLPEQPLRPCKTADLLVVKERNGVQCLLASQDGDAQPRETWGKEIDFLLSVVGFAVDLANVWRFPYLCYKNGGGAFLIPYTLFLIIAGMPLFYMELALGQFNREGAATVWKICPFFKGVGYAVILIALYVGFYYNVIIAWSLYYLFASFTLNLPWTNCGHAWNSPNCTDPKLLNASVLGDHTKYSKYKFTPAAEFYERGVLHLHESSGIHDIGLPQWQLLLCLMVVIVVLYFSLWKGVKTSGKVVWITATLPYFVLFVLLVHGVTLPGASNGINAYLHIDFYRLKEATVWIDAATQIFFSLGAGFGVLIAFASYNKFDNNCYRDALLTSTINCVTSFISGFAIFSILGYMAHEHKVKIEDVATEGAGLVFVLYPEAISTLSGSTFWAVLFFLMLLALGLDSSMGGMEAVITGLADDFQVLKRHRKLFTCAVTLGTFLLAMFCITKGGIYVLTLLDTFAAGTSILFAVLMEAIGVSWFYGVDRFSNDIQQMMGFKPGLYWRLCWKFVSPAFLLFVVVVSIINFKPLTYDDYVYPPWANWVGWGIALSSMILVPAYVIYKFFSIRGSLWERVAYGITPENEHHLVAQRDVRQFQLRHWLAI
Protocol: (§1) Radioligands used were: [^3H] Citalopram (PerkinElmer NET1039250UC); [^3H] Nisoxetine (PerkinElmer NET1084250UC); [^3H] WIN35428 (PerkinElmer NET1033250UC). […] Rat brains were dissected and tissue was homogenized in cold lysis buffer, centrifged at 100×g for 2 min and the supernatant was placed in a fresh tube. Supernatant was centrifuged at 13,000×g for 10 min at 4° C. to re-pellet the cell lysate. The pellet was resuspended in fresh wash buffer (50 mM Tris-HCl; 5 mM MgCl2; 5 mM EDTA) and centrifuged a third time. The pellet was then resuspended in wash buffer containing 10% sucrose as a cryoprotectant, divided into aliquots (0.3 mL) and stored at −80° C. A sample of the homogenate was analyzed for protein content using the SIGMA® BCA assay. On the day of the assay, the membrane preparation was thawed, and the pellet resuspended in final assay buffer. […] To each well was added 150 μL membranes, 50 μL of non-specific compound or buffer and 50 μL radioligand solution in buffer. […] Ki was subsequently calculated using the Cheng-Prusoff equation.

[3] = tested on: C57BL/6J mice; assay: Fear extinction paradigm (PTSD mouse model); assay type: in vivo
Description: Effective PTSD treatments facilitate the disassociation between a traumatic memory and the patient's fear response, making cues for the traumatic memory evoke less of a fear response. This is modeled in the mouse fear extinction paradigm (see FIG. 9A) which takes place over 3 days. On day 1 (fear conditioning), mice are trained to acquire a “traumatic memory,” namely associating the conditioned stimulus (CS, tone) to the unconditioned stimulus (US, foot shock). On day 2 (extinction training), they are trained to forget the traumatic memory association by presenting the CS 6 times (with no US) in a novel environment. On day 3 (extinction recall), the mice are “asked” if that tone (CS) still elicits a fearful response, as measured by the time spent freezing when the tone is presented. Less time freezing means better extinction recall. Drugs that improve extinction recall reduce freezing time on day 3, and, therefore, show potential as a PTSD treatment.
Methods: Cued fear conditioning was performed in C57BL/6J mice. On day 1, animals were placed in the chambers and presented with a training session (CS-US pairing). The training consisted of a 2-minute habituation followed by a 30-second, 80 dB tone; during the last 2 seconds of the tone animals received a 1 mA foot shock. This US-CS procedure occurred once for a total of one paired presentation of tone and shock. Freezing behavior (immobility) was recorded in 5-10-see intervals during the session. Percent baseline freezing behavior was determined in the 2-minute habituation period. On day 3, animals were placed in context B, in which tactile and odor cues differed from context A. Following a 2 minute acclimation period animals received 4×30 sec presentations of the CS (tone) in the absence of the US (footshock), with a 45 sec interval between presentations. Freezing was recorded in 5-10-see intervals to measure baseline freezing response to the altered context, and freezing response to each tone cue presentation. […] On day 4 (Post-Extinction Testing in Drug-Free State), animals were placed in Context B. Following a 2 min acclimation period, animals received 4×30 sec extinction tone duration presentations of the CS (tone) in the absence of the US (footshock), with a 45 sec interval between presentations. Freezing was recorded in 5-10-see intervals to measure baseline freezing response to the altered context, and freezing response to each tone cue presentation.

[4] = tested on: rats; assay: Reserpine-induced fibromyalgia model, von Frey test; assay type: in vivo, rat; conditions: methylone 15 mg/kg IP 30 min before vonFrey test, day 4
[5] = biological target: 168 GPCRs (Homo sapiens, UniProt Q969F8); assay: β-arrestin GPCR screen (PathHunter/GPCRmax), agonist mode; assay type: cell-based; design: host or cells: PathHunter cell lines; conditions: KISS1R; Agonist; 1 uM
Chain of 168 GPCRs (Q969F8 whole entry): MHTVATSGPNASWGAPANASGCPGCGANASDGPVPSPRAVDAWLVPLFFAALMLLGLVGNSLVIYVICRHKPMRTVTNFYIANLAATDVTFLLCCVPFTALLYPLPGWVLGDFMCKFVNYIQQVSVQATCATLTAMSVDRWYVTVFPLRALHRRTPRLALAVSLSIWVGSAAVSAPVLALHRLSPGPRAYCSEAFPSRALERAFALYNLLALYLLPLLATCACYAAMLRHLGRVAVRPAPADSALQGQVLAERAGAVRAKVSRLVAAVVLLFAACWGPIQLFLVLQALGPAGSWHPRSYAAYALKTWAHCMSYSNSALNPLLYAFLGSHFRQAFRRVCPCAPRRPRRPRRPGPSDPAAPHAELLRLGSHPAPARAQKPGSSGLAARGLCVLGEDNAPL
Protocol: For agonist determination, cells were incubated with sample to induce response. […] Vehicle concentration was 1%.

[6] = biological target: T1, serotonin transporter (SERT) (Rattus norvegicus, UniProt P31652); assay: Competitive radioligand binding, [3H]citalopram, rat brain lysates
T1 construct: from tissue; synaptosomes for uptake and release
T1 sequence (P31652 whole entry): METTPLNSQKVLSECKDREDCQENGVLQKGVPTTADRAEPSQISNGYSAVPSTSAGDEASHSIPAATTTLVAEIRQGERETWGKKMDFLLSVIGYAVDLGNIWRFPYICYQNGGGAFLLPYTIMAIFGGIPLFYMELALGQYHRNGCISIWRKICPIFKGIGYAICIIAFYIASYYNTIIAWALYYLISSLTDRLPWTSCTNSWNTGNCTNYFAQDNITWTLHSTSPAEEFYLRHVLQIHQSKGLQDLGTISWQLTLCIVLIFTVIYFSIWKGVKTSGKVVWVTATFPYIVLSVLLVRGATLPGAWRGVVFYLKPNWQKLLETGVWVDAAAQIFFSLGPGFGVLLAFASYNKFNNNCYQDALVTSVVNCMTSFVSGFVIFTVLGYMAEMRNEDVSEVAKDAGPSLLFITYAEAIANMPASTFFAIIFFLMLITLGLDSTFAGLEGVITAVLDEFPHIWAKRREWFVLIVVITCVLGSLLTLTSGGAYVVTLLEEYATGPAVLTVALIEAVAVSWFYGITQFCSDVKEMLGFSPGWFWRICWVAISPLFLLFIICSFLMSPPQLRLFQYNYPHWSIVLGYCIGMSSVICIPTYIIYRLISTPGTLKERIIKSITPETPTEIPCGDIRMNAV
Protocol: as §1

[7] = Excipient compatibility study; assay type: physicochemical; conditions: 2 Week 40° C./75% RH, closed vial
Protocol: Analyses were conducted at t=0, 2, 4 and 8 weeks for appearance, assay, and related substances for samples stored in closed vials at 25° C./60% RH and 40° C./75% RH.
Excipient Compatibility Sample Mixtures: The excipients and API were dispensed individually by weight into 20 mL clear borosilicate (type I) glass vials to fill the appropriate weights as listed in Table 12. Table 12 lists mixtures of API with varied excipients and a stand-alone control sample of API alone. Each excipient mixture sample preparation was conducted using a clean spatula to mix the vial ingredients for 30-60 seconds. Each vial was properly labeled with the description and storage conditions. One vial was used for testing at the initial (t=0) time point. Three vials, closed, were placed at each storage condition to allow sampling at each time point and one vial, closed, was placed at each storage condition for overage.

[8] = biological target: T2, dopamine transporter (DAT) (Rattus norvegicus, UniProt P23977); assay: Competitive radioligand binding, [3H]WIN35428, rat brain lysates
T2 construct: from tissue; synaptosomes for uptake and release
T2 sequence (P23977 whole entry): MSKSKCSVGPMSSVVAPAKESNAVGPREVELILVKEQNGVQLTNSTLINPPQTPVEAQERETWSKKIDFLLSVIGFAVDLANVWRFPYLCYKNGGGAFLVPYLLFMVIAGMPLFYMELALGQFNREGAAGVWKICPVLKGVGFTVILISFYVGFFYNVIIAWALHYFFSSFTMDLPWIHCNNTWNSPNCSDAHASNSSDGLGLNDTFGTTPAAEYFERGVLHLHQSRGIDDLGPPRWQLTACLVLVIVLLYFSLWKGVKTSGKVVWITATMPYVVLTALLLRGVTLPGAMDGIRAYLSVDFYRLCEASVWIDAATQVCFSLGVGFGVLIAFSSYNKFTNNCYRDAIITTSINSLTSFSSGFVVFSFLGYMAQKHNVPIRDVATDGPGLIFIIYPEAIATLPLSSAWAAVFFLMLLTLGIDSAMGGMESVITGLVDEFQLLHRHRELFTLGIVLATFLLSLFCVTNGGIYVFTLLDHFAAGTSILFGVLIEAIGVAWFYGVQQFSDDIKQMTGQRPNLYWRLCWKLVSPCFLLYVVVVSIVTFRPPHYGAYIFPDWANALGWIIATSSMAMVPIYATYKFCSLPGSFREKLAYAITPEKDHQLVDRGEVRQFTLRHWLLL
Protocol: as §1

[9] = cited from earlier work

SMILES: CNC(C)C(=O)c1ccc2c(c1)OCO2 (stereo not drawn) [methylone, 3,4-methylenedioxy-N-methylcathinone]
- MBP level in basolateral and central nuclei of the amygdala vs vehicle [1]: significant reduction in MBP
- Ki [2]: 1.15 µM
- fear extinction training on day 3 ([3]; Example 35, all doses (10, 20, 30 mg/kg IP)): significantly improved fear extinction training
- effect on fear extinction training and testing ([3]; Example 35, methylone 30 mg/kg IP 30 min before extinction training on day 3): rapid, robust and long-lasting beneficial effect
- enhancement of fear extinction recall vs saline ([3]; methylone 30 mg/kg IP 30 min before extinction training, day 3): ~60%
- locomotion during testing session ([3]; methylone 30 mg/kg IP, day 3): no differences between groups in locomotion
- paw withdrawal thresholds [4]: significantly increased paw withdrawal thresholds
- activity at 1 µM [5]: ~-5%
- Ki [6]: 4.15 µM
- Assay (% Recovery) [7]: 99.0 % Recovery
- Ki [8]: 5.73 µM
- AUC24 hr, Mean ([9]; 50 mg oral, N = 3): (989, 4.5%) hr*μg/L
- AUCinf, Mean ([9]; 50 mg oral, N = 3): (1063, 6.9%) hr*μg/L
- Cmax, Mean ([9]; 50 mg oral, N = 3): (153.0, 18.9%) μg/L
- Half-life, Mean ([9]; 50 mg oral, N = 3): (6.3, 15%) hr
- AUC10 hr, Mean ([9]; 100 mg oral, N = 6): (1586, 23.1%) hr*μg/L
- AUC24 hr, Mean ([9]; 100 mg oral, N = 6): (2268, 20.4%) hr*μg/L
- AUCinf, Mean ([9]; 100 mg oral, N = 6): (2444, 18.3%) hr*μg/L
- Cmax, Mean ([9]; 100 mg oral, N = 6): (303.6, 45%) μg/L
- Half-life, Mean ([9]; 100 mg oral, N = 6): (6.1, 23.3%) hr
- Tmax, Min-Max ([9]; 100 mg oral, N = 6): (0.75-3) hr
- AUC10 hr, Mean ([9]; 150 mg oral, N = 5): (2236, 29.0%) hr*μg/L
- AUC24 hr, Mean ([9]; 150 mg oral, N = 5): (3349, 36.5%) hr*μg/L
- AUCinf, Mean ([9]; 150 mg oral, N = 5): (3777, 42.2%) hr*μg/L
- Cmax, Mean ([9]; 150 mg oral, N = 5): (354.6, 30.7%) μg/L
- Half-life, Mean ([9]; 150 mg oral, N = 5): (6.8, 23.3%) hr
- Tmax, Min-Max ([9]; 150 mg oral, N = 5): (1.5-4) hr
- AUC10 hr, Mean ([9]; 200 mg oral, N = 7): (3310, 17.9%) hr*μg/L
- AUC24 hr, Mean ([9]; 200 mg oral, N = 7): (4796, 23.2%) hr*μg/L
- AUCinf, Mean ([9]; 200 mg oral, N = 7): (5267, 25.1%) hr*μg/L
- Cmax, Mean ([9]; 200 mg oral, N = 7): (603.6, 20.6%) μg/L
- Half-life, Mean ([9]; 200 mg oral, N = 7): (6.6, 15.1%) hr
- Tmax, Min-Max ([9]; 200 mg oral, N = 7): (1-4) hr
